According to US7875727B2, “Benzimidazole vascular damaging agents” (Angiogene Pharmaceuticals Ltd., priority 1999, dated 2011):

What was measured:
vasculature = conditions: administered at the MTD; cited from earlier work
[1] = system: tumour vasculature in CaNT tumour-bearing mice; assay: Activity against tumour vasculature measured by fluorescent dye (Hoechst 33342 functional vascular volume); type: in vivo; conditions: compared to control
Text: Activity Against Tumour Vasculature Measured by Fluorescent Dye.
One minute later, animals were killed and tumours excised and frozen; 10 μm sections were cut at 3 different levels and observed under UV illumination using an Olympus microscope equipped with epifluorescence. […] All estimates were based on counting a minimum of 100 fields from sections cut at the 3 different levels. Results are expressed as percentage reduction in vascular volume compared to control.

[2] = 50 mg/kg i.p., 24 h after drug treatment
[3] = 500 mg/kg i.p., 6 h after drug treatment

For `CC(=O)O[C@@]12CO[C@@H]1C[C@H](O)[C@@]1(C)C(=O)[C@H](O)C3=C(C)[C@@H](OC(=O)[C@H](O)[C@@H](NC(=O)OC(C)(C)C)c4ccccc4)C[C@@](O)([C@@H](OC(=O)c4ccccc4)[C@H]21)C3(C)C` [docetaxel], the vascular-damaging activity (vasculature) is listed as “no vascular-damaging activity”.

For `COC(=O)Nc1nc2cc(Oc3ccc(N)cc3)ccc2[nH]1` [Example 17, Methyl [5(6)-(4-aminophenoxy)-1H-benzimidazol-2yl]carbamate], the “% Reduction in vascular volume” value [1, 2] was 62%.

In the case of `COC(=O)Nc1nc2cc(Sc3ccccc3)ccc2[nH]1` [Fenbendazole, reference compound], the “% Reduction in vascular volume” value [1, 3] is reported as 44%.

For `COC(=O)Nc1nc2cc(C(=O)c3cccs3)ccc2[nH]1` [Nocodazole, reference compound], the “% Reduction in vascular volume” value ([1]; 100 mg/kg i.p., 24 h after drug treatment) was 23%.

In the case of `CCCOc1ccc2[nH]c(NC(=O)OC)nc2c1` [Oxibendazole, reference compound], the “% Reduction in vascular volume” value ([1]; 100 mg/kg i.p., 6 h after drug treatment) is reported as 43%.

With `COC(=O)Nc1nc2cc(Sc3ccc(OP(=O)(O)O)cc3)ccc2[nH]1` [Example 3, Methyl [5(6)-(4-phosphonooxyphenylthio)-IH-benzimidazol-2yl]carbamate] the “% Reduction in vascular volume” value [1, 2] was 22%.

For `COC(=O)Nc1nc2cc(C(=NO)c3ccc(O)cc3)ccc2[nH]1` [Example 15, Methyl [5(6)-(4-hydroxy-@-hydroxyiminobenzyl)-1H-benzimidazol-2yl]carbamate], the “% Reduction in vascular volume” value [1, 2] was 61%.

For `COC(=O)Nc1nc2cc(Sc3ccc(NC(=O)[C@H](C)N)cc3)ccc2[nH]1` [Example 5, Methyl [5(6)-(4-alanylaminophenylthio)-IH-benzimidazol-2yl]carbamate], the “% Reduction in vascular volume” value [1, 2] was 99%.

In the case of `COC(=O)Nc1nc2cc(C(=O)c3ccccc3)ccc2[nH]1` [Mebendazole, reference compound], the “% Reduction in vascular volume” value [1, 3] is reported as 56%.

With `COC(=O)Nc1nc2cc(Oc3ccc(NC(C)=O)cc3)ccc2[nH]1` [Example 16, Methyl [5(6)-(4-(acetylamino)phenoxy)-1H-benzimidazol-2yl]carbamate] the “% Reduction in vascular volume” value [1, 2] was 56%.

With `COC(=O)Nc1nc2cc(C(=O)c3ccc(O)cc3)ccc2[nH]1` [Example 1, Methyl [5(6)-(4-hydroxybenzoyl)-IH-benzimidazol-2vl]carbamate] the “% Reduction in vascular volume” value [1, 3] was 81%.

With `COC(=O)Nc1nc2cc(Oc3ccc(O)cc3)ccc2[nH]1` [Example 19, Methyl [5(6)-(4-hydroxyphenoxy)-1H-benzimidazol-2yl]carbamate] the “% Reduction in vascular volume” value [1, 2] was 88%.

With `COC(=O)Nc1nc2cc(Sc3ccc(O)cc3)ccc2[nH]1` [Example 12, Methyl [5(6)-(4-hydroxyphenylthio)-1H-benzimidazol-2yl]carbamate] the “% Reduction in vascular volume” value [1, 2] was 51%.

With `COC(=O)Nc1nc2cc(Oc3ccc(OP(=O)(O)O)cc3)ccc2[nH]1` [Example 14, Methyl [5(6)-(4-phosphonooxyphenoxy)-1H-benzimidazol-2yl]carbamate] the “% Reduction in vascular volume” value [1, 2] was 39%.

With `COC(=O)Nc1nc2cc(Sc3ccc(N)cc3)ccc2[nH]1` [Example 4, Methyl [5(6)-(4-aminophenylthio)-1H-benzimidazol-2yl]carbamate] the “% Reduction in vascular volume” value [1, 2] was 53%.

In the case of `COC(=O)Nc1nc2cc(C(=O)c3ccc(OP(=O)(O)O)cc3)ccc2[nH]1` [Example 2, Methyl [5(6)-(4-phosphonooxybenzoyl)-1H-benzimidazol-2yl]carbamate], the “% Reduction in vascular volume” value [1, 3] is reported as 80%.

With `COC(=O)Nc1nc2cc(Oc3cccc(O)c3)ccc2[nH]1` [Example 21, Methyl [5(6)-(3-hydroxyphenoxy)-1H-benzimxdazol-2yl]carbamate] the “% Reduction in vascular volume” value [1, 2] was 74%.

With `COC(=O)Nc1nc2cc(Oc3cccc(N)c3)ccc2[nH]1` [Example 18, Methyl [5(6)-(3-aminophenoxy)-1H-benzimidazol-2yl]carbamate] the “% Reduction in vascular volume” value [1, 2] was 47%.

For `CCCSc1ccc2[nH]c(NC(=O)OC)nc2c1` [Albendazole, reference compound], the “% Reduction in vascular volume” value [1, 3] was 51%.

With `COC(=O)Nc1nc2cc(Oc3ccccc3O)ccc2[nH]1` [Example 20, Methyl [5(6)-(2-hydroxyphenoxy)-1H-benzimidazol-2yl]carbamate] the “% Reduction in vascular volume” value [1, 2] was 69%.
